In patent publication US5230899A, “Methods and compositions for making liposomes” (SmithKline Beecham Corporation, priority 1991, dated 1993):

How the values were obtained:
in vivo = conditions: rat, iv, 5 mg/kg
Experimental: The bioavailibility of indomethacin in a gel formulation was compared with that of a suspenison of indomethacin, both being compared with an IV dose. Rats were dosed with 5 mg/Kg of indomethacin. Oleic acid, arginine and phosphatide #5 (described above) in the a the ratio 1:1:1 was used to make the gel. […] Blood levels were measured 0-30 hours.

[1] = Efficiency of encapsulation / entrapment of drugs in DPPC:oleic acid:Arg (1:1:1) liposomes; type: physicochemical; conditions: 10 mg/ml DPPC:oleic acid:Arg (1:1:1) liposomes
Experimental: A number of drugs were encapsulated with 10 mg/ml DPPC:oleic acid:[MUT]:1:1) liposomes to illustrate medicament encapsulation for use as a drug delivery system.

## COc1ccc2c(c1)c(CC(=O)O)c(C)n2C(=O)c1ccc(Cl)cc1 [indomethacin]
In vivo
  C0: 117 µg/mL

## CNCC(O)c1ccc(OC(=O)C(C)(C)C)c(OC(=O)C(C)(C)C)c1 (stereo not drawn) [Dipivalyl Epinephrine]
[1]; pH 7.1 PBS
  % Entrapment: 80%

## CC(C(=O)O)c1ccc(-c2ccccc2)c(F)c1 (stereo not drawn) [Flurbiprofen]
[1]; pH 7.8 PBS
  % Entrapment: 90%
